Laboratory results from patent US9062078B2, “Substituted 7-azabicyles and their use as orexin receptor modulators” (priority 2013, dated 2015).
Read-outs that look alike come from different tables or passages of the source.

How the values were obtained:
human orexin 2 receptor = human orexin 2 receptor (Homo sapiens (Human), UniProt O43614); experiment: Human orexin 2 receptor radioligand binding (competitive, [3H]-EMPA, HEK293 cell preparations)
human orexin 1 receptor = human orexin 1 receptor (Homo sapiens (Human), UniProt O43613); experiment: Human orexin 1 receptor radioligand binding (competitive, [3H]-SB674042, CHO cell preparations)
rat orexin 1 receptor = rat orexin 1 receptor (Rattus norvegicus, UniProt P56718); experiment: Rat orexin 1 receptor radioligand binding (competitive, [3H]-SB674042, HEK293 cell preparations); settings: rat orexin 1 receptor, [3H]-SB674042 competition binding; read-out: rOX1 Ki (nm)
[1] = human orexin 2 receptor, [3H]-EMPA competition binding, read-out: hOX2 Ki (nm)
[2] = human orexin 1 receptor, [3H]-SB674042 competition binding, read-out: hOX1 Ki (nm)

Sequence of human orexin 1 receptor (O43613 whole entry): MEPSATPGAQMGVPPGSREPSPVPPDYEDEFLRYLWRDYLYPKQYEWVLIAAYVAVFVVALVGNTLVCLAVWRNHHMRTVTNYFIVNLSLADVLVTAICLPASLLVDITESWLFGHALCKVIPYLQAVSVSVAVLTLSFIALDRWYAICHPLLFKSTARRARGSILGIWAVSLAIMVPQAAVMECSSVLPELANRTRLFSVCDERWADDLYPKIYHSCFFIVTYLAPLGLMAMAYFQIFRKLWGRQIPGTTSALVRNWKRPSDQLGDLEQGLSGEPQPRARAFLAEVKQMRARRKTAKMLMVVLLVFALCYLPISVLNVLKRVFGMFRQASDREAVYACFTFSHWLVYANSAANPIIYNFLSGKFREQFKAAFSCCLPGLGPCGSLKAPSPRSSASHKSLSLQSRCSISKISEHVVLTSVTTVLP
Sequence of human orexin 2 receptor (O43614 whole entry): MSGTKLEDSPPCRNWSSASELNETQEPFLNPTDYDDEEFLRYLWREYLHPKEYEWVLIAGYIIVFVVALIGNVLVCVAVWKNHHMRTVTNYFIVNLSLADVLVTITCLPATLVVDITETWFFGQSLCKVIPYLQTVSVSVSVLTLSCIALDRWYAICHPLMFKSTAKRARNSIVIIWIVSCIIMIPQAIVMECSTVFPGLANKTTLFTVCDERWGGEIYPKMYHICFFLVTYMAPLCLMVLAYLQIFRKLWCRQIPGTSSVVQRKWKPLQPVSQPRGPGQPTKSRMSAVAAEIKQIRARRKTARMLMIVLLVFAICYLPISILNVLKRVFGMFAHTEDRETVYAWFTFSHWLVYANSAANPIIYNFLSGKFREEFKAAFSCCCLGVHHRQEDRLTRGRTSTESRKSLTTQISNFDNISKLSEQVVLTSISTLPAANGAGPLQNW

Row | SMILES | Ki (human orexin 2 receptor; hOX2 Ki (nm)) [nM] | Ki (human orexin 1 receptor; hOX1 Ki (nm)) [nM] | Ki (human orexin 2 receptor; [1]) [nM] | Ki (human orexin 1 receptor; [2]) [nM] | Ki (rat orexin 1 receptor) [nM]
1 | O=C(c1ccccc1-c1cccs1)N1C2CCC1C(COc1ccc(F)cn1)C2 (racemic) [Example 11, (±)-(2-(((5-fluoropyridin-2-yl)oxy)methyl)-7-azabicyclo[2.2.1]heptan-7-yl)(2-(thiophen-2-yl)phenyl)methanone] | 12 | 10 |  |  | 
2 | Cc1ccc(-n2nccn2)c(C(=O)N2C3CCC2C(COc2nccc(C(F)(F)F)n2)C3)c1 (racemic) [Example 13, (±)-(5-methyl-2-(2H-1,2,3-triazol-2-yl)phenyl)(2-(((4-(trifluoromethyl)pyrimidin-2-yl)oxy)methyl)-7-azabicyclo[2.2.1]heptan-7-yl)methanone] |  | 118 | 109 |  | 
3 | Cc1ccc(-n2nccn2)c(C(=O)N2C3CCC2C(COc2ccc(C(F)(F)F)cn2)C3)c1 (racemic) [Example 14, (±)-(5-methyl-2-(2H-1,2,3-triazol-2-yl)phenyl)(2-(((5-(trifluoromethyl)pyridin-2-yl)oxy)methyl)-7-azabicyclo[2.2.1]heptan-7-yl)methanone] |  | 50 | 71 |  | 
4 | Cc1ccc(-n2nccn2)c(C(=O)N2C3CCC2C(COc2ncccc2C(F)(F)F)C3)c1 (racemic) [Example 15, (±)-(5-methyl-2-(2H-1,2,3-triazol-2-yl)phenyl)(2-(((3-(trifluoromethyl)pyridin-2-yl)oxy)methyl)-7-azabicyclo[2.2.1]heptan-7-yl)methanone] |  | 56 | 120 |  | 
5 | Cc1ccc(-n2nccn2)c(C(=O)N2C3CCC2C(COc2cccc(C(F)(F)F)n2)C3)c1 (racemic) [Example 16, (±)-(5-methyl-2-(2H-1,2,3-triazol-2-yl)phenyl)(2-(((6-(trifluoromethyl)pyridin-2-yl)oxy)methyl)-7-azabicyclo[2.2.1]heptan-7-yl)methanone] |  |  | 42 | 20 | 
6 | Cc1ccnc(OCC2CC3CCC2N3C(=O)c2cc(C)ccc2-n2nccn2)c1 (racemic) [Example 17, (±)-(5-methyl-2-(2H-1,2,3-triazol-2-yl)phenyl)(2-(((4-methylpyridin-2-yl)oxy)methyl)-7-azabicyclo[2.2.1]heptan-7-yl)methanone] |  |  | 69 | 41 | 
7 | Cc1ccc(-n2nccn2)c(C(=O)N2C3CCC2C(COc2cccc(C)n2)C3)c1 (racemic) [Example 18, (±)-(5-methyl-2-(2H-1,2,3-triazol-2-yl)phenyl)(2-(((6-methylpyridin-2-yl)oxy)methyl)-7-azabicyclo[2.2.1]heptan-7-yl)methanone] |  |  | 44 | 12 | 
8 | Cc1ccc(OCC2CC3CCC2N3C(=O)c2cc(C)ccc2-n2nccn2)nc1 (racemic) [Example 19, (±)-(5-methyl-2-(2H-1,2,3-triazol-2-yl)phenyl)(2-(((5-methylpyridin-2-yl)oxy)methyl)-7-azabicyclo[2.2.1]heptan-7-yl)methanone] |  |  | 44 | 12 | 
9 | Cc1ccc(-n2nccn2)c(C(=O)N2C3CCC2C(COc2nc(C)cnc2C)C3)c1 (racemic) [Example 20, (±)-(2-(((3,6-dimethylpyrazin-2-yl)oxy)methyl)-7-azabicyclo[2.2.1]heptan-7-yl)(5-methyl-2-(2H-1,2,3-triazol-2-yl)phenyl)methanone] |  |  | 364 | 270 | 
10 | Cc1ccc(-n2nccn2)c(C(=O)N2C3CCC2C(COc2nc4ccccc4nc2C(F)(F)F)C3)c1 (racemic) [Example 21, (±)-(5-methyl-2-(2H-1,2,3-triazol-2-yl)phenyl)(2-(((3-(trifluoromethyl)quinoxalin-2-yl)oxy)methyl)-7-azabicyclo[2.2.1]heptan-7-yl)methanone] |  | 300 | 487 |  | 
11 | O=C(c1ccccc1-n1nccn1)N1C2CCC1C(COc1ccc(F)cn1)C2 (racemic) [Example 22, (±)-(2-(2H-1,2,3-triazol-2-yl)phenyl)(2-(((5-fluoropyridin-2-yl)oxy)methyl)-7-azabicyclo[2.2.1]heptan-7-yl)methanone] |  |  | 50 | 47 | 
12 | O=C(c1cccc2cccnc12)N1C2CCC1C(COc1ccc(F)cn1)C2 (racemic) [Example 23, (±)-2-(((5-fluoropyridin-2-yl)oxy)methyl)-7-azabicyclo[2.2.1]heptan-7-yl)(quinolin-8-yl)methanone] |  |  | 1500 | 322 | 
13 | O=C(c1cccc2ccccc12)N1C2CCC1C(COc1ccc(F)cn1)C2 (racemic) [Example 24, (±)-2-(((5-fluoropyridin-2-yl)oxy)methyl)-7-azabicyclo[2.2.1]heptan-7-yl)(naphthalen-1-yl)methanone] |  |  | 164 | 122 | 
14 | Cc1ccc2ccccc2c1C(=O)N1C2CCC1C(COc1ccc(F)cn1)C2 (racemic) [Example 25, (±)-2-(((5-fluoropyridin-2-yl)oxy)methyl)-7-azabicyclo[2.2.1]heptan-7-yl)(2-methylnaphthalen-1-yl)methanone] | 160 | 74 |  |  | 
15 | O=C(c1cc(F)ccc1-n1nccn1)N1C2CCC1C(CNc1nccc(C(F)(F)F)n1)C2 (racemic) [Example 171, (±)-(5-fluoro-2-(2H-1,2,3-triazol-2-yl)phenyl)(2-(((4-(trifluoromethyl)pyrimidin-2-yl)amino)methyl)-7-azabicyclo[2.2.1]heptan-7-yl)methanone] |  |  |  | 1930 | 
16 | O=C(c1cc(F)ccc1-n1nccn1)N1C2CCC1C(CNc1cccc(C(F)(F)F)n1)C2 (racemic) [Example 172, (±)-(5-fluoro-2-(2H-1,2,3-triazol-2-yl)phenyl)(2-(((6-(trifluoromethyl)pyridin-2-yl)amino)methyl)-7-azabicyclo[2.2.1]heptan-7-yl)methanone] |  |  |  | 686 | 
17 | O=C(c1ccccc1-n1nccn1)N1C2CCC1C(Nc1ncc(C(F)(F)F)cn1)C2 (racemic) [Example 221, (±)-(2-(2H-1,2,3-triazol-2-yl)phenyl)(2-(5-(trifluoromethyl)pyrimidin-2-yl)amino)-7-azabicyclo[2.2.1]heptan-7-yl)methanone] |  |  |  | 200 | 
18 | O=C(c1cccc(F)c1-c1ccnnc1)N1[C@@H]2CC[C@H]1[C@H](Nc1cnc(C(F)(F)F)cn1)C2 [Example 264, (3-fluoro-2-(pyridazin-4-yl)phenyl)((1S,2R,4R)-2-((5-(trifluoromethyl)pyrazin-2-yl)amino)-7-azabicyclo[2.2.1]heptan-7-yl)methanone] |  |  | > 10000 |  | 1400
19 | Cc1cccc(C(=O)N2[C@@H]3CC[C@H]2[C@H](Nc2cnc(C(F)(F)F)cn2)C3)c1-c1ncco1 [Example 266, (3-methyl-2-(oxazol-2-yl)phenyl)((1S,2R,4R)-2-((5-(trifluoromethyl)pyrazin-2-yl)amino)-7-azabicyclo[2.2.1]heptan-7-yl)methanone] |  |  | 121 |  | 5
20 | O=C(c1cccc(F)c1-c1ccncc1)N1[C@@H]2CC[C@H]1[C@H](Nc1cnc(C(F)(F)F)cn1)C2 [Example 268, (3-fluoro-2-(pyridin-4-yl)phenyl)((1S,2R,4R)-2-((5-(trifluoromethyl)pyrazin-2-yl)amino)-7-azabicyclo[2.2.1]heptan-7-yl)methanone] |  |  | 3700 |  | 450
21 | O=C(c1cccc(F)c1-c1ncccn1)N1[C@@H]2CC[C@H]1[C@H](Nc1nccn3c(Br)cnc13)C2 [Example 270, ((1S,2R,4R)-2-((3-bromoimidazo[1,2-a]pyrazin-8-yl)amino)-7-azabicyclo[2.2.1]heptan-7-yl)(3-fluoro-2-(pyrimidin-2-yl)phenyl)methanone] |  |  | 145 |  | 325
22 | O=C(c1cccc(F)c1-c1ncccn1)N1[C@@H]2CC[C@H]1[C@H](Nc1nccn3c(C(F)(F)F)nnc13)C2 [Example 274] |  |  | 2560 |  | > 10000
23 | COC(=O)c1cnc(N[C@@H]2C[C@H]3CC[C@@H]2N3C(=O)c2cccc(F)c2-c2ncccn2)cn1 [Example 275, methyl 5-(((1S,2R,4R)-7-(3-fluoro-2-(pyrimidin-2-yl)benzoyl)-7-azabicyclo[2.2.1]heptan-2-yl)amino)pyrazine-2-carboxylate] |  |  | > 10000 |  | > 10000
24 | O=C(c1cccc(F)c1I)N1[C@@H]2CC[C@H]1[C@H](Nc1ncc(C(F)(F)F)cn1)C2 [Example 277, (3-fluoro-2-iodophenyl)((1S,2R,4R)-2-((5-(trifluoromethyl)pyrimidin-2-yl)amino)-7-azabicyclo[2.2.1]heptan-7-yl)methanone] |  |  | 7400 |  | 457
25 | CN(c1cnc(C(F)(F)F)cn1)[C@@H]1C[C@H]2CC[C@@H]1N2C(=O)c1cccc(F)c1-c1ncccn1 [Example 282, (3-fluoro-2-(pyrimidin-2-yl)phenyl)((1S,2R,4R)-2-(methyl(5-(trifluoromethyl)pyrazin-2-yl)amino)-7-azabicyclo[2.2.1]heptan-7-yl)methanone] |  |  | > 10000 |  | 486
26 | CCOc1ccc(C)nc1C(=O)N1[C@@H]2CC[C@H]1[C@H](Nc1cnc(C(F)(F)F)cn1)C2 [Example 287, (3-ethoxy-6-methylpyridin-2-yl)((1S,2R,4R)-2-((5-(trifluoromethyl)pyrazin-2-yl)amino)-7-azabicyclo[2.2.1]heptan-7-yl)methanone] |  |  | 767 |  | 472
27 | COc1cccc(-c2c(C)cnn2C)c1C(=O)N1[C@@H]2CC[C@H]1[C@H](Nc1cnc(C(F)(F)F)cn1)C2 [Example 292, (2-(1,4-dimethyl-1H-pyrazol-5-yl)-6-methoxyphenyl)((1S,2R,4R)-2-((5-(trifluoromethyl)pyrazin-2-yl)amino)-7-azabicyclo[2.2.1]heptan-7-yl)methanone] |  |  | > 10000 |  | > 10000
28 | O=C(c1cccc(F)c1-c1ncccn1)N1[C@H]2CC[C@@H]1[C@@H](Nc1cnc(C(F)(F)F)cn1)C2 [Example 297, (3-fluoro-2-(pyrimidin-2-yl)phenyl)((1R,2S,4S)-2-((5-(trifluoromethyl)pyrazin-2-yl)amino)-7-azabicyclo[2.2.1]heptan-7-yl)methanone] |  |  | > 10000 |  | > 10000
